Measured values from patent US12583852B2, “Heterocycle derivative” (JW PHARMACEUTICAL CORPORATION, priority 2018, dated 2026).

The compounds below were run on human dermal papilla cells (assay: Promotion of proliferation of human dermal papilla cells (CellTiter-Glo Luminescent cell viability assay)). Conditions: human dermal papilla cells (ScienCell, 2499); drug 0 to 30 μM; 48 hours; CellTiter-Glo luminescence; compared to DMSO-treated control group.
Type: cell-based
Procedure: The effect of promoting cell proliferation by the drug was analyzed using human dermal papilla cells (ScienCell, 2499). Human dermal papilla cells cultured using Mesenchymal Stem Cell Medium (ScienCell, 7501) medium were seeded at a density of 3×10^3 cells/well and in a volume of 100 μl in a 96-well plate, incubated overnight at 37° C. and 5% CO2, treated with the drug at different concentrations ranging from 0 to 30 μM in a volume of 100 μL, and incubated at 37° C. and 5% CO2 for 48 hours. CellTiter-Glo Luminescent cell viability assay was performed according to the manufacturer's protocol (Promega, G7573) to detect cell proliferation. Luminescence was measured using an Envision 2102 multilabeled reader (PerkinElmer) equipment, and the cell proliferation rate was analyzed by the activity of the drug-treated group compared to the DMSO-treated group (control group), which is a solvent of the drug.

Row | Compound | Maximum DP cell proliferation (%)
1 | Fc1cc2cn[nH]c2nc1Nc1cccc2c1CCC2 [Compound 104, N-(2,3-dihydro-1H-inden-4-yl)-5-fluoro-1H-pyrazolo[3,4-b]pyridin-6-amine] | 15
2 | Nc1n[nH]c2nc(Nc3cccc4c3CCC4)cnc12 [Compound 15, N6-(2,3-dihydro-1H-inden-4-yl)-1H-pyrazolo[3,4-b]pyrazine-3,6-diamine] | 24
3 | Fc1cc2c(-c3ccccc3)n[nH]c2nc1Nc1cccc2c1CCC2 [Example 109, 5-fluoro-N-indan-4-yl-3-phenyl-1H-pyrazolo[3,4-b]pyridin-6-amine] | 3.6
4 | CC1(C)Cc2cccc(Nc3nc4[nH]nc(N)c4cc3F)c2C1 [Compound 52, N6-(2,2-dimethyl-2,3-dihydro-1H-inden-4-yl)-5-fluoro-1H-pyrazolo[3,4-b]pyridine-3,6-diamine] | 11
5 | CS(=O)(=O)Nc1n[nH]c2nc(Nc3cccc4c3CCC4)c(F)cc12 [Example 106, N-(6-((2,3-dihydro-1H-inden-4-yl)amino)-5-fluoro-1H-pyrazolo[3,4-b]pyridin-3-yl)methanesulfonamide] | 4.8
6 | Nc1n[nH]c2nc(Nc3cccc4c3COC4)c(F)cc12 [Compound 9, N6-(1,3-dihydroisobenzofuran-4-yl)-5-fluoro-1H-pyrazolo[3,4-b]pyridine-3,6-diamine] | 2.6
7 | CN(C)c1n[nH]c2nc(Nc3cccc4c3CCC4)c(F)cc12 [Example 105, N6-(2,3-dihydro-1H-inden-4-yl)-5-fluoro-N3,N3-dimethyl-1H-pyrazolo[3,4-b]pyridine-3,6-diamine] | 12
8 | O=C(Nc1n[nH]c2nc(Nc3cccc4c3CCC4)c(F)cc12)C1CCCC1 [Compound 89, N-(6-((2,3-dihydro-1H-inden-4-yl)amino)-5-fluoro-1H-pyrazolo[3,4-b]pyridin-3-yl)cyclopentanecarboxamide] | 0.4
9 | Cc1c(Cl)cccc1Nc1nc2[nH]nc(N)c2cc1F [Compound 67, N6-(3-chloro-2-methylphenyl)-5-fluoro-1H-pyrazolo[3,4-b]pyridine-3,6-diamine] | 13
10 | Nc1n[nH]c2nc(Nc3cccc4c3CCC4)c(-c3ccccc3)cc12 [Compound 23, N6-(2,3-dihydro-1H-inden-4-yl)-5-phenyl-1H-pyrazolo[3,4-b]pyridine-3,6-diamine] | 5
11 | Nc1n[nH]c2nc(Nc3cccc4c3CCCC4)ccc12 [Compound 38, N6-(5,6,7,8-tetrahydronaphthalen-1-yl)-1H-pyrazolo[3,4-b]pyridine-3,6-diamine] | 2.2
12 | Nc1n[nH]c2nc(Nc3c(O)ccc4c3CCC4)c(F)cc12 [Compound 57, 4-[(3-amino-5-fluoro-1H-pyrazolo[3,4-b]pyridin-6-yl)amino]indan-5-ol] | 3.1
13 | Cc1c(F)cccc1Nc1nc2[nH]nc(N)c2cc1F [Compound 82, 5-fluoro-N6-(3-fluoro-2-methylphenyl)-1H-pyrazolo[3,4-b]pyridine-3,6-diamine] | 14
14 | Cn1nc(N)c2cc(F)c(Nc3cccc4c3CCC4)nc21 [Compound 90, N6-(2,3-dihydro-1H-inden-4-yl)-5-fluoro-1-methyl-1H-pyrazolo[3,4-b]pyridine-3,6-diamine] | 13
15 | Fc1cc2c(Br)n[nH]c2nc1Nc1c(Br)cc(Br)c2c1CCC2 [Example 119, 3-bromo-N-(5,7-dibromoindan-4-yl)-5-fluoro-1H-pyrazolo[3,4-b]pyridin-6-amine] | 1.3
16 | Nc1n[nH]c2nc(Nc3cccc4ccccc34)ccc12 [Compound 35, N6-(naphthalen-1-yl)-1H-pyrazolo[3,4-b]pyridine-3,6-diamine] | 1.2
17 | Nc1n[nH]c2nc(Nc3cccc4occc34)c(F)cc12 [Compound 10, N6-(benzofuran-4-yl)-5-fluoro-1H-pyrazolo[3,4-b]pyridine-3,6-diamine] | 13
18 | Nc1nn(Cc2ccccc2)c2nc(Nc3cccc4c3CCC4)c(F)cc12 [Compound 93, 1-benzyl-N6-(2,3-dihydro-1H-inden-4-yl)-5-fluoro-1H-pyrazolo[3,4-b]pyridine-3,6-diamine] | 2.8
19 | Cc1nc(Nc2cccc3c2CCC3)nc2[nH]nc(N)c12 [Compound 84, N6-(2,3-dihydro-1H-inden-4-yl)-4-methyl-1H-pyrazolo[3,4-d]pyrimidine-3,6-diamine] | 7.4
20 | N#Cc1cccc(Nc2nc3[nH]nc(N)c3cc2F)c1F [Compound 79, 3-[(3-amino-5-fluoro-1H-pyrazolo[3,4-b]pyridin-6-yl)amino]-2-fluoro-benzonitrile] | 3.6
21 | Nc1n[nH]c2nc(Nc3ccc(Cl)c(C(F)F)c3)c(F)cc12 [Compound 75, N6-(4-chloro-3-(difluoromethyl)phenyl)-5-fluoro-1H-pyrazolo[3,4-b]pyridine-3,6-diamine] | 3
22 | Nc1n[nH]c2nc(Nc3cccc4c3CC=C4)c(F)cc12 [Compound 48, 5-fluoro-N6-(1H-inden-7-yl)-1H-pyrazolo[3,4-b]pyridine-3,6-diamine] | 11
23 | CCOC(=O)c1cc2c(N)n[nH]c2nc1Nc1cccc2c1CCC2 [Compound 14, ethyl 3-amino-6-((2,3-dihydro-1H-inden-4-yl)amino)-1H-pyrazolo[3,4-b]pyridine-5-carboxylate] | 5.3
24 | CC(=O)Cn1nc(N)c2cc(F)c(Nc3cccc4c3CCC4)nc21 [Compound 94, 1-(3-amino-6-((2,3-dihydro-1H-inden-4-yl)amino)-5-fluoro-1H-pyrazolo[3,4-b]pyridin-1-yl)propan-2-one] | 18
25 | Nc1n[nH]c2nc(Nc3cccc(C(F)(F)F)c3F)ccc12 [Compound 65, N6-[2-fluoro-3-(trifluoromethyl)phenyl]-1H-pyrazolo[3,4-b]pyridine-3,6-diamine] | 10
26 | CC(=O)Nc1n[nH]c2nc(Nc3cccc4c3CCC4)c(F)cc12 [Compound 92, N-(6-((2,3-dihydro-1H-inden-4-yl)amino)-5-fluoro-1H-pyrazolo[3,4-b]pyridin-3-yl)acetamide] | 8
27 | Nc1n[nH]c2nc(Nc3cccc(C(F)F)c3F)cnc12 [Compound 39, N6-[3-(difluoromethyl)-2-fluoro-phenyl]-1H-pyrazolo[3,4-b]pyrazine-3,6-diamine] | 7.9
28 | Nc1n[nH]c2nc(Nc3cccc4c3CCCC4)c(F)cc12 [Compound 19, 5-fluoro-N6-(5,6,7,8-tetrahydronaphthalen-1-yl)-1H-pyrazolo[3,4-b]pyridine-3,6-diamine] | 9
29 | Nc1n[nH]c2nc(Nc3cccc(C(F)(F)F)c3F)cnc12 [Compound 66, N6-[2-fluoro-3-(trifluoromethyl)phenyl]-1H-pyrazolo[3,4-b]pyrazine-3,6-diamine] | 25
30 | Nc1n[nH]c2nc(Nc3cccc(Cl)c3Cl)c(F)cc12 [Compound 59, N6-(2,3-dichlorophenyl)-5-fluoro-1H-pyrazolo[3,4-b]pyridine-3,6-diamine] | 15
